Results from paper PMC8763936 (Investigational New Drugs, 2021).
Several values for one entry are separate records, joined by “and”; a condition that tells them apart may be missing. Identical values can stand only once. Marks after values point to notes of the source that are not given here.

Assays:
[1] = system: CYPs 1A2, 2B6, 2C8, 2C9, 2C19 and 2D6 (all tested CYPs but CYP3A4/5); assay: In vitro CYP inhibition in human liver microsomes, CYPs not named one by one; type: in vitro ADME; conditions: human, read-out: IC50 for the other CYPs tested
[2] = Study 1 Cohort 2: single dose entrectinib alone or with rifampin, plasma pharmacokinetics; conditions: for t1/2 / half-life / AUCinf / Cmax: geometric mean (geometric CV); for M5/Entrectinib ratio, AUCinf / M5/Entrectinib ratio, Cmax: arithmetic mean (CV)
Procedure: All doses of study medication were administered at the study center.

CYP1A1 = biological target: T1, CYP1A1 (Homo sapiens, UniProt P04798); assay: Metabolism by recombinantly expressed CYP enzymes; parameters: Entrectinib Metabolism to M5: key to the marks not given beside the values
T1 sequence (P04798 1-512): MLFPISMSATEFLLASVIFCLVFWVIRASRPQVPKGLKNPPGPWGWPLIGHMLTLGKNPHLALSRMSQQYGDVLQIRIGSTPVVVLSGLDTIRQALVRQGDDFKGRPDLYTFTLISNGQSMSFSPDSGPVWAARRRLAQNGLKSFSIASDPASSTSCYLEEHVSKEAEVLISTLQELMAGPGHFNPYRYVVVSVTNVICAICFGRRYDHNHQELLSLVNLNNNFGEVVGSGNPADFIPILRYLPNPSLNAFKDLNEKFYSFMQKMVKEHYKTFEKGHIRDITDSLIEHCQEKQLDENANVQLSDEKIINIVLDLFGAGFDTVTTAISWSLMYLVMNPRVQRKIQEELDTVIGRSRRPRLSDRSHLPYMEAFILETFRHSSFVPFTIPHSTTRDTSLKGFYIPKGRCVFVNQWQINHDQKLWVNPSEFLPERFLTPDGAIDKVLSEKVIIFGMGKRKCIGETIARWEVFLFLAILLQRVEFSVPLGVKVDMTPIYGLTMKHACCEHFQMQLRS

CYP2C8 [3] = biological target: T2, CYP2C8 (Homo sapiens, UniProt P10632); assay: In vitro CYP inhibition in human liver microsomes; type: in vitro ADME; parameters: was investigated in human liver microsomes; from tissue; host or cells: pooled human liver microsomes; conditions: for IC50: human liver microsomes
T2 sequence (P10632 1-490): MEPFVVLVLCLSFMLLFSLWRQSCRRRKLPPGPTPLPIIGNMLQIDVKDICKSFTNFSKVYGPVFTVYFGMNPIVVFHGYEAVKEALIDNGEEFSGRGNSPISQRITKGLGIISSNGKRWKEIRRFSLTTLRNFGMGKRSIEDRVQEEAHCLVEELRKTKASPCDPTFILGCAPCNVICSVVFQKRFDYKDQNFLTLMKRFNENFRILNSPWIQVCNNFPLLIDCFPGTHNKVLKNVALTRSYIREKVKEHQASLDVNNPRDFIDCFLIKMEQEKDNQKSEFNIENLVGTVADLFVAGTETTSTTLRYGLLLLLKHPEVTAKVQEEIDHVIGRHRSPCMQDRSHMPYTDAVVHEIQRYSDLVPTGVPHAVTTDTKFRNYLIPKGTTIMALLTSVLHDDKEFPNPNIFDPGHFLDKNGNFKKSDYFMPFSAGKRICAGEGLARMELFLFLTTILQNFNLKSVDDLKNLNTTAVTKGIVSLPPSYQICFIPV

CYP2C8 [4] = biological target: T2, CYP2C8; assay: Metabolism by recombinantly expressed CYP enzymes
CYP2C9 = CYP2C9 (Homo sapiens, UniProt P11712); assay: In vitro CYP inhibition in human liver microsomes; type: in vitro ADME; parameters: purchased Corning-Gentest
CYP2C9, sequence (P11712 whole entry): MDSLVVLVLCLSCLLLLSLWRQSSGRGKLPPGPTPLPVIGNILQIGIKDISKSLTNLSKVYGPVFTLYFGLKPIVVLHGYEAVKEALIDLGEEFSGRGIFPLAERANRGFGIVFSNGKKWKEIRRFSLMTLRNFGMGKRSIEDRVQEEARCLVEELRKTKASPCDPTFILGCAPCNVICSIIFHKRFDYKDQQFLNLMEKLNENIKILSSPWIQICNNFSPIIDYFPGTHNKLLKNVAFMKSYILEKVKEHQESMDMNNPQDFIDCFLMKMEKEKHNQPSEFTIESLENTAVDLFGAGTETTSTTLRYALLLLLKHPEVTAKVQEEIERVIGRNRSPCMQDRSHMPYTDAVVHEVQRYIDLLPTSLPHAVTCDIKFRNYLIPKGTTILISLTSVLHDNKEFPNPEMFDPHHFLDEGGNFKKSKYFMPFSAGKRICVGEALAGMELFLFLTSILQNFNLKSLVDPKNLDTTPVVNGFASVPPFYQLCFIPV

P-gp = P-gp (Homo sapiens, UniProt P08183); assay: In vitro P-gp substrate assay (Caco-2 and MDCKII-MDR1 cells); type: in vitro ADME; parameters: expressed in transfected cells; host or cells: MDCKII-MDR1 cells; also Caco-2 cells
P-gp, sequence (P08183 whole entry): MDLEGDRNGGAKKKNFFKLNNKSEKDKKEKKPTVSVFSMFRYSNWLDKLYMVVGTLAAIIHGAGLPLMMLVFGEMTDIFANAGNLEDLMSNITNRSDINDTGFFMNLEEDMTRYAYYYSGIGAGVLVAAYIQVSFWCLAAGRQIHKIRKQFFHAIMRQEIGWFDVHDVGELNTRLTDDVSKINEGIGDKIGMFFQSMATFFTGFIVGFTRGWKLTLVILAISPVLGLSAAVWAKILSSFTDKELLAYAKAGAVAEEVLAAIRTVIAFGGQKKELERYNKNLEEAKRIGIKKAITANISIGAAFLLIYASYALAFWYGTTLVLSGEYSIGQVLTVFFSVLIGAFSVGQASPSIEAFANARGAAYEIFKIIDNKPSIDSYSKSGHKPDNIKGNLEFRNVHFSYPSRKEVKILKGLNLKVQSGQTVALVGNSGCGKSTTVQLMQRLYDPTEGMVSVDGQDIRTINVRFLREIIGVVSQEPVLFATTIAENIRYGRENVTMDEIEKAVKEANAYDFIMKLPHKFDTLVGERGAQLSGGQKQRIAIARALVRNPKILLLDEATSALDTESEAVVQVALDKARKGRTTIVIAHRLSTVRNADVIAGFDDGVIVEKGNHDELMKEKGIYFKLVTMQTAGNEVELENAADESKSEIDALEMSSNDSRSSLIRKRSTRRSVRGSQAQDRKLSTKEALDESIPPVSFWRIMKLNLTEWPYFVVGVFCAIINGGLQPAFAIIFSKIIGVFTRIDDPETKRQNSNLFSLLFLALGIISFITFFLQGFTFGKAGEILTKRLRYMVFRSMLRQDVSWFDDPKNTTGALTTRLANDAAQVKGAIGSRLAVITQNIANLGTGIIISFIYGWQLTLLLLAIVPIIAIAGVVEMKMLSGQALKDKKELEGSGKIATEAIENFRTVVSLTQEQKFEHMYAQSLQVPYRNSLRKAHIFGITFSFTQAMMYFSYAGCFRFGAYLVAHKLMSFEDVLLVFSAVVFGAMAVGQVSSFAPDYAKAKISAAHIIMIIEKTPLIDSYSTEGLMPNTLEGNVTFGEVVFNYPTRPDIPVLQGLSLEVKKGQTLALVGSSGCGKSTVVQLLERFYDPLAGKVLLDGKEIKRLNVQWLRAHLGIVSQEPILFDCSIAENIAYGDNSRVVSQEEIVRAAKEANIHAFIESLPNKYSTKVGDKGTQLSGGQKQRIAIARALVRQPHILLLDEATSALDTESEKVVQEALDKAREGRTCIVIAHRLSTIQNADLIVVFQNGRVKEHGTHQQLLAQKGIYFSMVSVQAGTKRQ

[5] = system: human CYPs 1A2, 2B6, 2C8, 2C9, 2C19, 2D6 and 3A; assay: In vitro CYP inhibition in human liver microsomes, CYPs not named one by one; type: in vitro ADME; conditions: entrectinib: all but CYP3A4/5, M5: all but CYP2C8, read-out: IC50 for the other CYPs tested
[6] = parameters: method as in Roche data on file; conditions: human plasma; ref Roche data on file; cited from earlier work
CYP2C19 = assay: Induction of CYP enzymes in human hepatocytes; conditions: percent of positive control
Procedure: In vitro induction of CYP mRNA (CYPs 1A2, 2C8, 2C9 and 3A4) or enzyme activity (CYPs 1A2, 2C19 and 3A4) was assessed in human hepatocytes.

[7] = system: CYPs 1A2, 2B6, 2C19, and 3A4; assay: Induction of CYP enzymes in human hepatocytes, CYPs tested taken together; type: in vitro ADME
[8] = Intrinsic clearance in long-term micropatterned co-cultured human hepatocytes; type: in vitro ADME
[9] = humans, mass balance study; cited from earlier work
[10] = Estimated free plasma Cmax in patients treated at 600 mg QD; type: in vivo, human; conditions: unbound fraction of 1% used
CYP2B6 = assay: Induction of CYP enzymes in human hepatocytes; type: in vitro ADME; conditions: percent of positive control
[11] = Entrectinib 600 mg with rifampin 600 mg QD
[12] = Entrectinib 600 mg with rifampin

## CN1CCN(c2ccc(C(=O)Nc3n[nH]c4ccc(Cc5cc(F)cc(F)c5)cc34)c(NC3CCOCC3)c2)CC1 [Entrectinib]
[1]
  IC50: > 10 µM
[2]; Entrectinib 600 mg alone
  t1/2: 16.7 (16%) h
[2]; [11]
  t1/2: 9.9 (26%) h
[2]; entrectinib coadministered with rifampin vs alone
  decrease of AUCinf: 77%
[2]; human, in vivo, 600 mg
  Tmax: 2.0 (2.0, 5.0) h
[2]; human, in vivo, 600 mg, Tmax
  Tmax: 3.5 h
[2]; human, in vivo, 600 mg, t1/2, Entrectinib 600 mg alone
  half-life: 17 h
[2]; human, in vivo, 600 mg, t1/2, Entrectinib 600 mg with rifampin 600 mg QD
  half-life: 10 h
CYP1A1
  Entrectinib Metabolism to M5: ++
  Entrectinib Metabolism to other Products: +
CYP2C8 [3]
  IC50: > 10 µM
CYP2C8 [4]
  Entrectinib Metabolism to M5: +
  Entrectinib Metabolism to other Products: +
CYP2C9
  IC50: > 10 µM

## O=C(Nc1n[nH]c2ccc(Cc3cc(F)cc(F)c3)cc12)c1ccc(N2CCNCC2)cc1NC1CCOCC1 [M5]
P-gp
  P-gp substrate status: substrate
[5]
  IC50: > 10 µM
[2]; Entrectinib 600 mg alone, single dose, healthy subjects, fasted
  AUCinf: 11,000 (44%) nM•h
[2]; Entrectinib 600 mg alone
  M5/Entrectinib ratio, AUCinf: 0.337 (56%)
  M5/Entrectinib ratio, Cmax: 0.234 (59%)
  Cmax: 383 nM
  t1/2: 33.8 (12%) h
[2]; Entrectinib 600 mg alone, median (minimum, maximum)
  Tmax: 5.0 (4.0, 5.0) h
[2]; [11]
  AUCinf: 1530 (28%) nM•h
  Cmax: 108 nM
  t1/2: 31.1 (28%) h
[2]; Entrectinib 600 mg with rifampin 600 mg QD, median (minimum, maximum)
  Tmax: 3.0 (2.0, 6.0) h
[2]; [12]
  M5/Entrectinib ratio, AUCinf: 0.187 (28%)
  M5/Entrectinib ratio, Cmax: 0.136 (23%)
[2]; entrectinib 600 mg alone
  M5 exposure as share of entrectinib exposure (mean M5/entrectinib ratio for AUCinf): approximately 34%
[2]; entrectinib 600 mg coadministered with rifampin
  M5 exposure as share of entrectinib exposure (mean M5/entrectinib ratio for AUCinf): 19%
[2]; following entrectinib alone and with rifampin
  mean t1/2: 31 to 34 h
[6]
  unbound fraction: < 1%
CYP1A1
  M5 Metabolism: +
CYP2C19; M5 0.5 µM
  Relative Effectiveness ± SD Based on CYP Activity: -1.21% ±0.94
CYP2C19; M5 2.5 µM
  Relative Effectiveness ± SD Based on CYP Activity: -3.22% ±3.41
CYP2C19; M5 10 µM, n=2
  Relative Effectiveness ± SD Based on CYP Activity: -9.87% ^a
[7]
  impact on the activities of the CYPs tested: no significant impact
CYP2C8 [3]; free Cmax 0.0134 μM vs IC50 about 4.9 μM
  free Cmax lower than the CYP2C8 IC50: > 300 fold
CYP2C8 [3]
  IC50: ~4.9 µM and 4.9 µM
[8]
  intrinsic clearance relative to entrectinib: approximately twofold lower intrinsic clearance than entrectinib
[9]
  share of total circulating radioactivity: 12%
CYP2C8 [4]
  M5 Metabolism: -
CYP2C9
  IC50: > 10 µM
[10]
  estimated free Cmax in plasma: 13.4 nM
CYP2B6; M5 0.5 µM
  Relative Effectiveness ± SD Based on CYP Activity: 2.98% ±2.91
  Relative Effectiveness ± SD Based on CYP mRNA: 4.22% ±4.37
CYP2B6; M5 2.5 µM
  Relative Effectiveness ± SD Based on CYP Activity: 9.02% ±8.75
  Relative Effectiveness ± SD Based on CYP mRNA: 19.3% ±11.4
CYP2B6; M5 10 µM
  Relative Effectiveness ± SD Based on CYP Activity: 9.56% ±8.52
  Relative Effectiveness ± SD Based on CYP mRNA: 26.5% ±10.7
